Data from publication PMC12720098, “Prolintane analogs as hybrid monoamine transporter ligands: Structural determinants and species differences” (The Journal of Biological Chemistry, 2025).
Like-named read-outs stand apart in the source and are kept apart here.

How the values were obtained:
Type in all cases: cell-based
hDAT = target: T1, hDAT (Homo sapiens, UniProt Q01959); assay: Uptake inhibition assay ([3H]DA) in transfected HEK293 cells; settings: for DAT/SERT ratio: human isoform (h), 1/DAT IC50 / 1/SERT IC50
T1 construct: expressed in transfected cells
T1 sequence (Q01959 whole entry, canonical isoform): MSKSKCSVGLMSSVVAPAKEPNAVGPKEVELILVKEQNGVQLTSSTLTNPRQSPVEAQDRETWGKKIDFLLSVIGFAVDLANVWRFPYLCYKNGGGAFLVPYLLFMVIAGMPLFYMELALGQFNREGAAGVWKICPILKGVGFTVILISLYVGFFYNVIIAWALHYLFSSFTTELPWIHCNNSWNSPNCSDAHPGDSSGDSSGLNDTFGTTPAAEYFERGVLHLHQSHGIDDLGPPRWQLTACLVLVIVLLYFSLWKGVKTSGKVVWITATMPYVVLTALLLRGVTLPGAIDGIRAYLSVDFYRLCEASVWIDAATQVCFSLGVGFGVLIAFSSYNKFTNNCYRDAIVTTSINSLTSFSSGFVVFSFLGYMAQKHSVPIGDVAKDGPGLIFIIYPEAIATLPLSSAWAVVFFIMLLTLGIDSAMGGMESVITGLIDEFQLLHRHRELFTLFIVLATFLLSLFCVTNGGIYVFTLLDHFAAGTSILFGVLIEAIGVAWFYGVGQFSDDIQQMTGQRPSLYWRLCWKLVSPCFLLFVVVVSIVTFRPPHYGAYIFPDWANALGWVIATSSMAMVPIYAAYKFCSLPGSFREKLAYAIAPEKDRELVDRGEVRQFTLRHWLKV
Procedure: HEK293 cells stably expressing human monoamine transporters hSERT, hDAT or hNET were seeded into poly-D-lysine (PDL) coated 96-well plates with a density of approximately 36,000 cells per well 1 day prior to experiments. A day after seeding, the cell medium was replaced with 200 μl Krebs-HEPES-buffer (KHB; 120 mM NaCl, 3 mM KCl, 2 mM CaCl2·2H2O, 2 mM MgCl2·6H2O, 20 mM D-glucose, pH = 7.3). The test drugs were initially dissolved in Milli-Q H2O or dimethyl sulfoxide (DMSO) at a concentration of 10 to 100 mM. Then, cells were treated with the respective concentration of the test drug diluted in KHB for 5 min as a pre-incubation step. Subsequently, in the uptake step, the solution was replaced with 50 μl/well diluted drug solution and tritiated substrate (hDAT: 0.1 μM [^3H]DA; hNET: 0.02 μM [^3H]MPP^+; hSERT: 0.1 μM [^3H]5-HT) for 1 min (hDAT, hSERT) or 3 min (hNET). After incubation, cells were immediately washed with 200 μl KHB to stop uptake. Uptake was indirectly measured by quantifying beta emission with liquid scintillation counting (Wallac 1450 MicroBeta TriLux Liquid Scintillation Counter & Lumi; GMI). Therefore, 200 μl Ultima Gold XR scintillation cocktail (PerkinElmer, MA, USA) was added to each well.
(§1) Half-maximal inhibitory concentrations (IC50) were obtained from fitting a sigmoidal dose–response ( Y=Bottom+Top−Bottom/1+10^((LogIC50−X)·HillSlope) ) in GraphPad Prism 10.3.1 (GraphPad Software Inc.). Uptake inhibition data were evaluated by one-way ANOVA followed by Tukey's multiple comparisons test. Release data were analyzed using a two-way ANOVA (batch release) or a mixed-effects model with Geisser-Greenhouse correction (time-dependent traces) employing Šidák correction for comparing differences between compounds with or without the addition of monensin.

hSERT [1] = target: T2, hSERT (Homo sapiens, UniProt P31645); settings: for hSERT efflux ± Mon, mean diff: superfusion; for Mean diff, hSERT efflux ± Mon (Šídák's multiple comparisons test): drug alone vs drug + monensin (Mon)
T2 construct: expressed in transfected cells
T2 sequence (P31645 whole entry, the tested form may be a part): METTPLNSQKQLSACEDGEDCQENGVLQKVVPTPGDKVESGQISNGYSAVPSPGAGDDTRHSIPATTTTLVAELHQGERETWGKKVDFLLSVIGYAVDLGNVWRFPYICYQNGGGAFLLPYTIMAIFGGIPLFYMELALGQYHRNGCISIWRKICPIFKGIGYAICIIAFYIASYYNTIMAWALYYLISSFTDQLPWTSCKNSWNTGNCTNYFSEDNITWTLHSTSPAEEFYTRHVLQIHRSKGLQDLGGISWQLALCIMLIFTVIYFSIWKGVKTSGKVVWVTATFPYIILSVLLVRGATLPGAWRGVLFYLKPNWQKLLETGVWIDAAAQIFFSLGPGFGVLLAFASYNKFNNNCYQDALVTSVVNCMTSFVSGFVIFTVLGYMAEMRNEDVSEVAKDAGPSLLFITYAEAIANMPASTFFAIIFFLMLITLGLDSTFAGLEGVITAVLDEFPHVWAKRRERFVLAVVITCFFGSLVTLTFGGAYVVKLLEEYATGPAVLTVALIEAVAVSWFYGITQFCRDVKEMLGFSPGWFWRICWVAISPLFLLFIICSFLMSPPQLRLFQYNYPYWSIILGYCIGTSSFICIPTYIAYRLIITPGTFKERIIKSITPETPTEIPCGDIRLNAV
Procedure: A day prior to the experiment, HEK293 cells stably expressing hSERT or rat SERT (rSERT) were seeded at a density of 100,000 cells per channel into 6 channel flow ibidi slides (Gräfelfing, Germany). On the day of the experiments, cells were preloaded with 0.1 μM [^3H]5-HT at 37 °C, 5% CO2 for 20 min. Subsequently, the slides were transferred to the superfusion apparatus ([59]). Cells were then washed with KHB for 15 min under a constant flow of 0.5 ml/min. Fractions were collected every 2 min in 8 ml vials containing 2 ml scintillation cocktail. Collection began with three baseline fractions using KHB, followed by four additional basal release fractions with KHB, either with or without 10 μM monensin. […] To assess residual radioactivity within the cells, they were lysed with 1% sodium dodecyl sulfate (SDS), and three final fractions were obtained. The measured tritiated substrate in each fraction was expressed as a percentage of the initial tritiated substrate present at the start of that fraction.
as §1

hSERT [2] = target: T2, hSERT; settings: for Mean of normalized currents elicited through hSERT by drug application: normalized to 10 µM 5-HT current
Procedure: One day prior to recording, either native HEK293 cells or HEK293 cells stably expressing monoamine transporters were seeded at low density onto PDL-coated 35 mm dishes. Patch-clamp experiments were conducted at a holding potential of −60 mV, with substrate-induced currents recorded at room temperature (20–24 °C) using an […] amplifier and pClamp 11.2 software (MDS Analytical Technologies). During recordings, cells were continuously superfused via a DAD-12 perfusion system and an 8-tube manifold (ALA Scientific Instruments), delivering an external solution composed of 140 mM NaCl, 2.5 mM CaCl2, 3 mM KCl, 2 mM MgCl2, 20 mM glucose, and 10 mM HEPES, with pH adjusted to 7.3 using NaOH. The intracellular pipette solution, designed to mimic physiological ionic conditions, contained 133 mM potassium gluconate, 5.9 mM NaCl, 1 mM CaCl2, 0.7 mM MgCl2, 10 mM HEPES, and 10 mM EGTA, with pH set to 7.2 using KOH. Currents were filtered at 1 kHz and digitized at 10 kHz via a Digidata 1550 digitizer (MDS Analytical Technologies), followed by analysis in Clampfit 10.2 (Molecular Devices). Substance-induced currents were normalized to the current elicited by a saturating concentration of 5-HT (10 μM) of the same cell. Holding currents were subtracted, and a 50 Hz digital Gaussian low-pass filter was applied to the traces for further analysis.

[3] = Row 1 (2 min fraction 1, baseline KHB)
[4] = Row 2 (2 min fraction 2, baseline KHB)
[5] = Row 3 (2 min fraction 3, baseline KHB)
[6] = Row 4 (fraction 4, KHB with or without 10 μM monensin)
[7] = Row 5 (fraction 5, KHB with or without 10 μM monensin)
[8] = Row 6 (fraction 6, KHB with or without 10 μM monensin)
[9] = Row 7 (fraction 7, KHB with or without 10 μM monensin)
[10] = Row 8 (fraction 8, compound at IC50 concentration)
[11] = Row 9 (fraction 9, compound at IC50 concentration)
[12] = Row 10 (fraction 10, compound at IC50 concentration)
[13] = Row 11 (fraction 11, compound at IC50 concentration)
[14] = Row 12 (fraction 12, compound at IC50 concentration)

Compound: CCCC(Cc1ccccc1C)N1CCCC1 (stereo not shown) [2-Methylprolintane, 1-[1-(2-methylphenyl)pentan-2-yl]pyrrolidine]
- IC50 (hDAT): 185 ± 65 nM
- DAT/SERT ratio (hDAT): 23
- hSERT efflux ± Mon, mean diff (hSERT [1]; [3]): 0.1289
- hSERT efflux ± Mon, mean diff (hSERT [1]; [4]): 0.1185
- hSERT efflux ± Mon, mean diff (hSERT [1]; [5]): 0.1694
- hSERT efflux ± Mon, mean diff (hSERT [1]; [6]): 0.04832
- hSERT efflux ± Mon, mean diff (hSERT [1]; [7]): -0.1068
- hSERT efflux ± Mon, mean diff (hSERT [1]; [8]): -0.2079
- hSERT efflux ± Mon, mean diff (hSERT [1]; [9]): -0.2202
- hSERT efflux ± Mon, mean diff (hSERT [1]; [10]): -5.467
- hSERT efflux ± Mon, mean diff (hSERT [1]; [11]): -7.92
- hSERT efflux ± Mon, mean diff (hSERT [1]; [12]): -7.744
- hSERT efflux ± Mon, mean diff (hSERT [1]; [13]): -7.355
- hSERT efflux ± Mon, mean diff (hSERT [1]; [14]): -7.467
- Mean of normalized currents elicited through hSERT by drug application (hSERT [2]): 0.386

Compound: CCCC(Cc1cccc(C)c1)N1CCCC1 (stereo not shown) [3-Methylprolintane, 1-[1-(3-methylphenyl)pentan-2-yl]pyrrolidine]
- IC50 (hDAT): 56 ± 11 nM
- DAT/SERT ratio (hDAT): 53
- Mean diff, hSERT efflux ± Mon (Šídák's multiple comparisons test) (hSERT [1]; Row 1 (time fraction)): 0.05456
- Mean diff, hSERT efflux ± Mon (Šídák's multiple comparisons test) (hSERT [1]; Row 2 (time fraction)): 0.01844
- Mean diff, hSERT efflux ± Mon (Šídák's multiple comparisons test) (hSERT [1]; Row 3 (time fraction)): 0.02833
- Mean diff, hSERT efflux ± Mon (Šídák's multiple comparisons test) (hSERT [1]; Row 4 (time fraction)): 0.07733
- Mean diff, hSERT efflux ± Mon (Šídák's multiple comparisons test) (hSERT [1]; Row 5 (time fraction)): -0.1496
- Mean diff, hSERT efflux ± Mon (Šídák's multiple comparisons test) (hSERT [1]; Row 6 (time fraction)): -0.229
- Mean diff, hSERT efflux ± Mon (Šídák's multiple comparisons test) (hSERT [1]; Row 7 (time fraction)): -0.329
- Mean diff, hSERT efflux ± Mon (Šídák's multiple comparisons test) (hSERT [1]; Row 8 (time fraction)): -4.546
- Mean diff, hSERT efflux ± Mon (Šídák's multiple comparisons test) (hSERT [1]; Row 9 (time fraction)): -6.038
- Mean diff, hSERT efflux ± Mon (Šídák's multiple comparisons test) (hSERT [1]; Row 10 (time fraction)): -6.018
- Mean diff, hSERT efflux ± Mon (Šídák's multiple comparisons test) (hSERT [1]; Row 11 (time fraction)): -5.904
- Mean diff, hSERT efflux ± Mon (Šídák's multiple comparisons test) (hSERT [1]; Row 12 (time fraction)): -5.776
- Mean of normalized currents elicited through hSERT by drug application (hSERT [2]): 0.354

Compound: CCCC(Cc1ccccc1)N1CCCC1 (stereo not shown) [Prolintane, 1-(1-phenylpentan-2-yl)pyrrolidine]
- IC50 (hDAT): 43 ± 24 nM
- DAT/SERT ratio (hDAT): 670
- hSERT efflux ± Mon, mean diff (hSERT [1]; [3]): 0.02682
- hSERT efflux ± Mon, mean diff (hSERT [1]; [4]): 0.1025
- hSERT efflux ± Mon, mean diff (hSERT [1]; [5]): 0.1806
- hSERT efflux ± Mon, mean diff (hSERT [1]; [6]): 0.1203
- hSERT efflux ± Mon, mean diff (hSERT [1]; [7]): 0.07151
- hSERT efflux ± Mon, mean diff (hSERT [1]; [8]): -0.1392
- hSERT efflux ± Mon, mean diff (hSERT [1]; [9]): -0.1744
- hSERT efflux ± Mon, mean diff (hSERT [1]; [10]): -5.479
- hSERT efflux ± Mon, mean diff (hSERT [1]; [11]): -6.902
- hSERT efflux ± Mon, mean diff (hSERT [1]; [12]): -6.703
- hSERT efflux ± Mon, mean diff (hSERT [1]; [13]): -6.503
- hSERT efflux ± Mon, mean diff (hSERT [1]; [14]): -6.083
- Mean of normalized currents elicited through hSERT by drug application (hSERT [2]): 0.2567
- hSERT-mediated current (hSERT [2]; prolintane 30 µM, after 5-HT washout (Fig. S2)): elicited an inward current

Compound: CCCC(Cc1cccc(F)c1)N1CCCC1 (stereo not shown) [3-Fluoroprolintane, 1-[1-(3-fluorophenyl)pentan-2-yl]pyrrolidine]
- IC50 (hDAT): 64 ± 20 nM
- DAT/SERT ratio (hDAT): 210
- Mean diff, hSERT efflux ± Mon (Šídák's multiple comparisons test) (hSERT [1]; Row 1 (time fraction)): 0,003889
- Mean diff, hSERT efflux ± Mon (Šídák's multiple comparisons test) (hSERT [1]; Row 2 (time fraction)): -0,003000
- Mean diff, hSERT efflux ± Mon (Šídák's multiple comparisons test) (hSERT [1]; Row 3 (time fraction)): 0,02067
- Mean diff, hSERT efflux ± Mon (Šídák's multiple comparisons test) (hSERT [1]; Row 4 (time fraction)): -0,01133
- Mean diff, hSERT efflux ± Mon (Šídák's multiple comparisons test) (hSERT [1]; Row 5 (time fraction)): -0,1369
- Mean diff, hSERT efflux ± Mon (Šídák's multiple comparisons test) (hSERT [1]; Row 6 (time fraction)): -0,2296
- Mean diff, hSERT efflux ± Mon (Šídák's multiple comparisons test) (hSERT [1]; Row 7 (time fraction)): -0,2910
- Mean diff, hSERT efflux ± Mon (Šídák's multiple comparisons test) (hSERT [1]; Row 8 (time fraction)): -4,827
- Mean diff, hSERT efflux ± Mon (Šídák's multiple comparisons test) (hSERT [1]; Row 9 (time fraction)): -7,510
- Mean diff, hSERT efflux ± Mon (Šídák's multiple comparisons test) (hSERT [1]; Row 10 (time fraction)): -7,391
- Mean diff, hSERT efflux ± Mon (Šídák's multiple comparisons test) (hSERT [1]; Row 11 (time fraction)): -7,140
- Mean diff, hSERT efflux ± Mon (Šídák's multiple comparisons test) (hSERT [1]; Row 12 (time fraction)): -7,011
- Mean of normalized currents elicited through hSERT by drug application (hSERT [2]): 0.306
